Experimental data from PubChem BioAssay AID248 (DTP/NCI, 2004).
Several values for one entry are separate records, joined by “and”; a condition that tells them apart may be missing. Equal entries are not always repeated. Inconclusive results and toxic doses are left out. No stated cut-off is given here; in the data, active means T/C of 150% or more; inactive means T/C below 125%.

Tested on: L1210 leukemia ip in BDF1 mice, survival T/C
Test: NCI In Vivo Anticancer Drug Screen. Data for tumor model L1210 Leukemia (intraperitoneal) in B6D2F1 (BDF1) mice
Conditions: endpoint: mean survival time, higher = longer survival
Procedure, shortened: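 Value reflects the ratio of survival in compound-treated mice to survival in vehicle-treated controls, with both groups carrying the same transplanted tumor.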

[1] = dose: 25.0 mg/kg/injection, schedule: Q01DX009 (ip), vehicle: saline with Tween-80
[2] = dose: 50.0 mg/kg/injection, schedule: Q01DX009 (ip), vehicle: saline with Tween-80
[3] = dose: 100.0 mg/kg/injection, schedule: Q01DX001 (ip), vehicle: carboxymethylcellulose (CMC)
[4] = dose: 200.0 mg/kg/injection, schedule: Q01DX001 (ip), vehicle: carboxymethylcellulose (CMC)
[5] = dose: 400.0 mg/kg/injection, schedule: Q01DX001 (ip), vehicle: carboxymethylcellulose (CMC)
[6] = dose: 100.0 mg/kg/injection, schedule: Q04DX003 (ip), vehicle: Klucel (hydroxypropylcellulose) (HPC)
[7] = dose: 200.0 mg/kg/injection, schedule: Q04DX003 (ip), vehicle: Klucel (hydroxypropylcellulose) (HPC)
[8] = dose: 400.0 mg/kg/injection, schedule: Q04DX003 (ip), vehicle: Klucel (hydroxypropylcellulose) (HPC)
[9] = dose: 100.0 mg/kg/injection, schedule: Q01DX009 (ip), vehicle: Klucel (hydroxypropylcellulose) (HPC)
[10] = dose: 400.0 mg/kg/injection, schedule: Q01DX009 (ip), vehicle: Klucel (hydroxypropylcellulose) (HPC)
[11] = dose: 100.0 mg/kg/injection, schedule: Q01DX009 (ip), vehicle: saline with Tween-80
[12] = dose: 100.0 mg/kg/injection, schedule: Q04DX003 (ip), vehicle: saline with Tween-80
[13] = dose: 200.0 mg/kg/injection, schedule: Q04DX003 (ip), vehicle: saline with Tween-80

Measured: T/C

C[N+](C)(Cc1ccccc1)CC(O)COc1ccccc1 (stereo not drawn)
inactive: dose: 12.5 mg/kg/injection, schedule: Q01DX001 (ip), vehicle: saline with Tween-80 108 % of control | dose: 12.5 mg/kg/injection, schedule: Q01DX009 (ip), vehicle: saline with Tween-80 100 % of control | dose: 12.5 mg/kg/injection, schedule: Q04DX003 (ip), vehicle: saline with Tween-80 92 % of control | dose: 25.0 mg/kg/injection, schedule: Q01DX001 (ip), vehicle: saline with Tween-80 100 % of control | [1] 94 % of control | dose: 25.0 mg/kg/injection, schedule: Q04DX003 (ip), vehicle: saline with Tween-80 94 % of control | dose: 50.0 mg/kg/injection, schedule: Q01DX001 (ip), vehicle: saline with Tween-80 100 % of control | [2] 102 % of control | dose: 50.0 mg/kg/injection, schedule: Q04DX003 (ip), vehicle: saline with Tween-80 103 % of control

Oc1c(Cl)cc(Cl)cc1C=Nc1ccc(Br)cn1
inactive: dose: 100.0 mg/kg/injection, schedule: Q01DX001 (ip), vehicle: other 95 % of control | dose: 200.0 mg/kg/injection, schedule: Q01DX001 (ip), vehicle: other 101 % of control | dose: 400.0 mg/kg/injection, schedule: Q01DX001 (ip), vehicle: other 95 % of control

CCN(CC)c1nc2ccccc2o1
inactive: [3] 102 % of control | [4] 91 % of control | [5] 91 % of control

O=P1(c2ccccc2)CCc2[nH]c3ccc(Cl)cc3c2C1 (stereo not drawn)
inactive: [6] 100 % of control | [7] 107 % of control | [8] 112 % of control

COc1ccc(OC)c(COC(=O)c2ccccc2)c1COC(=O)c1ccccc1
inactive: [3] 95 % of control | [4] 101 % of control | [5] 95 % of control

Cc1ccc2c(c1[N+](=O)[O-])C(=O)c1ccccc1C2=O
inactive: dose: 50.0 mg/kg/injection, schedule: Q01DX001 (ip), vehicle: saline 96 % of control | dose: 100.0 mg/kg/injection, schedule: Q01DX001 (ip), vehicle: saline 90 % of control | [9] 100 % of control | dose: 100.0 mg/kg/injection, schedule: Q04DX002 (ip), vehicle: Klucel (hydroxypropylcellulose) (HPC) 104 % of control | dose: 200.0 mg/kg/injection, schedule: Q01DX001 (ip), vehicle: saline 90 % of control | dose: 200.0 mg/kg/injection, schedule: Q04DX002 (ip), vehicle: Klucel (hydroxypropylcellulose) (HPC) 110 % of control | dose: 400.0 mg/kg/injection, schedule: Q01DX001 (ip), vehicle: saline 90 % of control | [10] 111 % of control | dose: 400.0 mg/kg/injection, schedule: Q04DX002 (ip), vehicle: Klucel (hydroxypropylcellulose) (HPC) 96 % of control

OC1(C2C=CC=C2)c2ccccc2C=Cc2ccccc21
inactive: dose: 9.38 mg/kg/injection, schedule: Q01DX001 (ip), vehicle: other 100 % of control | dose: 18.75 mg/kg/injection, schedule: Q01DX001 (ip), vehicle: other 100 % of control | dose: 37.5 mg/kg/injection, schedule: Q01DX001 (ip), vehicle: other 100 % of control

CC1(C)CC2(CC(C)(C)c3cc(O)c(O)cc32)c2cc(O)c(O)cc21
inactive: [9] 95 % of control | [6] 100 % of control | dose: 200.0 mg/kg/injection, schedule: Q01DX009 (ip), vehicle: Klucel (hydroxypropylcellulose) (HPC) 100 % of control | [7] 105 % of control | [10] 104 % of control | [8] 102 % of control

Cc1csc2nccc(Cl)c12
inactive: dose: 50.0 mg/kg/injection, schedule: Q04DX002 (ip), vehicle: saline with Tween-80 98 % of control | dose: 100.0 mg/kg/injection, schedule: Q04DX002 (ip), vehicle: saline with Tween-80 91 % of control

Oc1ccc(Cl)cc1Br
inactive: [1] 100 % of control | [2] 88 % of control | [11] 100 % of control

COc1c2c([n+](C)c3c(OC)cccc13)OC(C(C)C)C2 (stereo not drawn)
inactive: dose: 0.5 mg/kg/injection, schedule: Q01DX009 (ip), vehicle: acetone 100 % of control | dose: 0.75 mg/kg/injection, schedule: Q01DX009 (ip), vehicle: saline 103 % of control | dose: 1.0 mg/kg/injection, schedule: Q01DX001 (ip), vehicle: saline 96 % of control | dose: 1.0 mg/kg/injection, schedule: Q01DX009 (ip), vehicle: acetone 120 % of control | dose: 1.0 mg/kg/injection, schedule: Q04DX003 (ip), vehicle: Klucel (hydroxypropylcellulose) (HPC) 97 % of control | dose: 1.0 mg/kg/injection, schedule: Q04DX003 (ip), vehicle: acetone 108 % of control | dose: 1.5 mg/kg/injection, schedule: Q01DX009 (ip), vehicle: saline 92 % of control | dose: 2.0 mg/kg/injection, schedule: Q01DX001 (ip), vehicle: saline 96 % of control | dose: 2.0 mg/kg/injection, schedule: Q04DX003 (ip), vehicle: Klucel (hydroxypropylcellulose) (HPC) 105 % of control | dose: 2.0 mg/kg/injection, schedule: Q04DX003 (ip), vehicle: acetone 119 % of control | dose: 4.0 mg/kg/injection, schedule: Q01DX001 (ip), vehicle: saline 98 % of control

c1cc2c3c(c1)ncn3CCC2
inactive: dose: 50.0 mg/kg/injection, schedule: Q01DX009 (ip), vehicle: other 119 % of control | dose: 100.0 mg/kg/injection, schedule: Q01DX009 (ip), vehicle: other 104 % of control | [12] 102 % of control | dose: 200.0 mg/kg/injection, schedule: Q01DX009 (ip), vehicle: other 117 % of control | [13] 100 % of control

C#CCSC(C)C
inactive: dose: 25.0 mg/kg/injection, schedule: Q04DX002 (ip), vehicle: saline 104 % of control | dose: 50.0 mg/kg/injection, schedule: Q04DX002 (ip), vehicle: saline 104 % of control | dose: 100.0 mg/kg/injection, schedule: Q04DX002 (ip), vehicle: saline 96 % of control | dose: 200.0 mg/kg/injection, schedule: Q04DX002 (ip), vehicle: saline 104 % of control and 107 % of control | dose: 400.0 mg/kg/injection, schedule: Q04DX002 (ip), vehicle: saline 93 % of control

CC(=O)OC1Cc2ccccc21 (stereo not drawn)
inactive: [11] 96 % of control | [12] 95 % of control | dose: 200.0 mg/kg/injection, schedule: Q01DX009 (ip), vehicle: saline with Tween-80 109 % of control | [13] 96 % of control | dose: 400.0 mg/kg/injection, schedule: Q01DX009 (ip), vehicle: saline with Tween-80 100 % of control | dose: 400.0 mg/kg/injection, schedule: Q04DX003 (ip), vehicle: saline with Tween-80 98 % of control

CC(=O)c1cccc(NC(=O)Nc2cccc(C(C)=O)c2)c1
inactive: dose: 2.5 mg/kg/injection, schedule: Q01DX009 (ip), vehicle: saline 101 % of control | dose: 5.0 mg/kg/injection, schedule: Q01DX009 (ip), vehicle: saline 95 % of control | dose: 10.0 mg/kg/injection, schedule: Q01DX009 (ip), vehicle: saline 98 % of control | dose: 20.0 mg/kg/injection, schedule: Q01DX009 (ip), vehicle: saline 93 % of control and 101 % of control | dose: 40.0 mg/kg/injection, schedule: Q01DX009 (ip), vehicle: saline 90 % of control | dose: 80.0 mg/kg/injection, schedule: Q01DX009 (ip), vehicle: saline 93 % of control | dose: 160.0 mg/kg/injection, schedule: Q01DX009 (ip), vehicle: saline 90 % of control | dose: 320.0 mg/kg/injection, schedule: Q01DX009 (ip), vehicle: saline 95 % of control

Oc1cccc2cccnc12
inactive: [3] 100 % of control | [5] 96 % of control

C=CCOc1ccc(OCC=C)nn1
inactive: [6] 104 % of control | [7] 97 % of control | [8] 101 % of control

COc1ccc(CC[N+]2=Cc3cc(OC)c(OC)cc3CC2)cc1OC
inactive: dose: 50.0 mg/kg/injection, schedule: Q01DX009 (ip), vehicle: saline 97 % of control | dose: 100.0 mg/kg/injection, schedule: Q01DX009 (ip), vehicle: saline 105 % of control | dose: 100.0 mg/kg/injection, schedule: Q04DX003 (ip), vehicle: saline 97 % of control | dose: 200.0 mg/kg/injection, schedule: Q04DX003 (ip), vehicle: saline 101 % of control
